Measured values published in patent US20210395239A1 (Hoffmann-La Roche Inc., priority 2018, published 2021).

Target: T1, hTLR9 (Homo sapiens, UniProt Q9NR96)
T1 sequence (Q9NR96 26-1032): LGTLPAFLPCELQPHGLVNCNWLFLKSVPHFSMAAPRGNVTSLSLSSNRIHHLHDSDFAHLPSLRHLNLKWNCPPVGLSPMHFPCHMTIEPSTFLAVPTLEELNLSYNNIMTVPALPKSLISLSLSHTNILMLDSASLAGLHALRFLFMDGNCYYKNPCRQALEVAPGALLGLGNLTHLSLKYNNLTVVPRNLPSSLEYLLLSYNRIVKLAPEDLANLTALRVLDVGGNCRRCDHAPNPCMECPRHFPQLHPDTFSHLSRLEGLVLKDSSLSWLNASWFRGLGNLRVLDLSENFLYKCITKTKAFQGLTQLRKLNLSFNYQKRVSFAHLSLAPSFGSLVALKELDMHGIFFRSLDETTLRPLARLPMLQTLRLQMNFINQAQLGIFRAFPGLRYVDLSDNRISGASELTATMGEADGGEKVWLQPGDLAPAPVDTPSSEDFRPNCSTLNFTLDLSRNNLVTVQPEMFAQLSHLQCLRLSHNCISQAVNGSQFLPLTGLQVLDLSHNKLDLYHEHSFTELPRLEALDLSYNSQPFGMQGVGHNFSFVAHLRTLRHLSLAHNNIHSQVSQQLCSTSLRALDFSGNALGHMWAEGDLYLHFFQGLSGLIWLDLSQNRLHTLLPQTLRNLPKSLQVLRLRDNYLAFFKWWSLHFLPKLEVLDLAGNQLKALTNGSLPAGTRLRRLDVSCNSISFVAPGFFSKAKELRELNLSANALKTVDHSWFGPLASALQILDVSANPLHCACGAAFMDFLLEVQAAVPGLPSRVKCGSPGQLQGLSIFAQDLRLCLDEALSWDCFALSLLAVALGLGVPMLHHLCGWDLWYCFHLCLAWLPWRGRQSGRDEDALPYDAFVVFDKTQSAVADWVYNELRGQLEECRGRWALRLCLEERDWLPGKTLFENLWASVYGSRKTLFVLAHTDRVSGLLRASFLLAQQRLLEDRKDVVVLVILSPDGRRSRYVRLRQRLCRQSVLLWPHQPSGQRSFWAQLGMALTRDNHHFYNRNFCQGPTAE
Test: HEK293-Blue-hTLR-9 cells assay (SEAP reporter, ODN2006 stimulation)
Format: cell-based
Parameters: host or cells: HEK293 (HEK-Blue hTLR9)
Conditions: HEK293-Blue-hTLR9 cells, ODN2006, 20 hrs; read-out: HEK/hTLR9 IC50
How it was run: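 HEK293-Blue-hTLR9 cells with NF-κB/AP-1-driven SEAP reporter treated with serially diluted compound (1% DMSO final) plus ODN2006 for 20 h at 37 °C. Supernatant SEAP measured with QUANTI-Blue, 2 h at 37 °C, absorbance 620–655 nm; antagonism seen as reduced reporter signal.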

Row | SMILES | IC50 [nM]
1 | Cc1cc(N2CCN(C[C@H]3CN(c4ccc(C#N)c5ncccc45)C[C@@H](C)O3)CC2)nc(N2CC(N)C(F)(F)C2)n1 (stereo partly drawn) [Example 63, 5-[(2S,6R)-2-[[4-[2-(4-amino-3,3-difluoro-pyrrolidin-1-yl)-6-methyl-pyrimidin-4-yl]piperazin-1-yl]methyl]-6-methyl-morpholin-4-yl]quinoline-8-carbonitrile] | 246
2 | C[C@@H]1CN(c2ccc(C#N)c3ncccc23)C[C@H](CN2CCN(c3ncc(C#N)c(N4CCNCC4)n3)CC2)O1 [Example 51, 5-[(2S,6R)-2-[[4-(5-cyano-4-piperazin-1-yl-pyrimidin-2-yl)piperazin-1-yl]methyl]-6-methyl-morpholin-4-yl]quinoline-8-carbonitrile] | 121
3 | C[C@@H]1CN(c2ccc(C#N)c3ncccc23)C[C@H](CN2CCN(c3cc(N4CCNCC4)ncn3)CC2)O1 [Example 18, 5-[(2R,6S)-2-methyl-6-[[4-(6-piperazin-1-ylpyrimidin-4-yl)piperazin-1-yl]methyl]morpholin-4-yl]quinoline-8-carbonitrile] | 52
4 | C[C@@H]1CN(c2ccc(C#N)c3ncccc23)C[C@H](CN2CCN(c3ccnc(N4CCN(C(=O)[C@@H]5CCCN5)CC4)n3)CC2)O1 [Example 31, 5-[(2R,6S)-2-methyl-6-[[4-[2-[4-[(2S)-pyrrolidine-2-carbonyl]piperazin-1-yl]pyrimidin-4-yl]piperazin-1-yl]methyl]morpholin-4-yl]quinoline-8-carbonitrile] | 46
5 | C[C@@H]1CN(c2ccc(C#N)c3ncccc23)C[C@H](CN2CCN(c3cccc(N4CCC(N)CC4)n3)CC2)O1 [Example 36, 5-[(2S,6R)-2-[[4-[6-(4-amino-1-piperidyl)-2-pyridyl]piperazin-1-yl]methyl]-6-methyl-morpholin-4-yl]quinoline-8-carbonitrile] | 118
6 | Cc1cc(N2CCN(C[C@H]3CN(c4ccc(C#N)c5nccnc45)C[C@@H](C)O3)CC2)nc(N2CCNCC2)n1 [Example 64, 8-[(2R,6S)-2-methyl-6-[[4-(6-methyl-2-piperazin-1-yl-pyrimidin-4-yl)piperazin-1-yl]methyl]morpholin-4-yl]quinoxaline-5-carbonitrile] | 35
7 | C[C@@H]1CN(c2cc(=O)n(C)c3ncccc23)C[C@H](CN2CC(c3ccc(N4CCNCC4)cc3)C2)O1 [Example 171, 1-methyl-4-[(2R,6S)-2-methyl-6-[[3-(4-piperazin-1-ylphenyl)azetidin-1-yl]methyl]morpholin-4-yl]-1,8-naphthyridin-2-one] | 35
8 | C[C@@H]1CN(c2ccc(C#N)c3ncccc23)C[C@H](CN2CCN(c3ccc(N4CC(N)C(F)C4)nc3)CC2)O1 (stereo partly drawn) [Example 44, 5-[(2S,6R)-2-[[4-[6-(3-amino-4-fluoro-pyrrolidin-1-yl)-3-pyridyl]piperazin-1-yl]methyl]-6-methyl-morpholin-4-yl]quinoline-8-carbonitrile] | 164
9 | Cc1cc(N2CCN(C[C@H]3CN(c4ccc(C#N)c5ncccc45)C[C@@H](C)O3)CC2)nc(N2CCNCC(O)C2)n1 (stereo partly drawn) [Example 66, 5-[(2S,6R)-2-[[4-[2-(6-hydroxy-1,4-diazepan-1-yl)-6-methyl-pyrimidin-4-yl]piperazin-1-yl]methyl]-6-methyl-morpholin-4-yl]quinoline-8-carbonitrile] | 32
10 | C[C@@H]1CN(c2ccc(C#N)c3ncccc23)C[C@H](CN2CCN(c3nc(N4CCNCC4)nc4ccccc34)CC2)O1 [Example 49, 5-[(2R,6S)-2-methyl-6-[[4-(2-piperazin-1-ylquinazolin-4-yl)piperazin-1-yl]methyl]morpholin-4-yl]quinoline-8-carbonitrile] | 146
11 | C[C@@H]1CN(c2ccc(C#N)n3ncc(F)c23)C[C@H](CN2CCN(c3ccc([C@@H]4CNCCO4)cc3)CC2)O1 [Example 177, 3-fluoro-4-[(2R,6S)-2-methyl-6-[[4-[4-[(2R)-morpholin-2-yl]phenyl]piperazin-1-yl]methyl]morpholin-4-yl]pyrazolo[1,5-a]pyridine-7-carbonitrile] | 98
12 | Cc1cc(N2CCN(C[C@H]3CN(c4ccc(C#N)c5ncccc45)C[C@@H](C)O3)CC2)nc(N2CC3(CNCCO3)C2)n1 [Example 61, 5-[(2R,6S)-2-methyl-6-[[4-[6-methyl-2-(5-oxa-2,8-diazaspiro[3.5]nonan-2-yl)pyrimidin-4-yl]piperazin-1-yl]methyl]morpholin-4-yl]quinoline-8-carbonitrile] | 32
13 | CO[C@H]1CN(c2cccc(N3CCN(C[C@H]4CN(c5ccc(C#N)c6ncccc56)C[C@@H](C)O4)CC3)n2)C[C@H]1N [Example 42, 5-[(2S,6R)-2-[[4-[6-[(3R,4S)-3-amino-4-methoxy-pyrrolidin-1-yl]-2-pyridyl]piperazin-1-yl]methyl]-6-methyl-morpholin-4-yl]quinoline-8-carbonitrile] | 147
14 | C[C@@H]1CN(c2ccc(C#N)c3ncccc23)C[C@H](CN2CCN(c3cccc(C4CNCCO4)c3)CC2)O1 (stereo partly drawn) [Example 62, 5-[(2R,6S)-2-methyl-6-[[4-(3-morpholin-2-ylphenyl)piperazin-1-yl]methyl]-morpholin-4-yl]quinoline-8-carbonitrile] | 92
15 | COC1CN(c2ccc(C3CN(C[C@H]4CN(c5cc(=O)n(C)c6ncccc56)C[C@@H](C)O4)C3)cc2)C[C@H]1N (stereo in doubt) [Example 172, 4-[(2S,6R)-2-[[3-[4-[(3R,4R)-3-amino-4-methoxy-pyrrolidin-1-yl]phenyl]azetidin-1-yl]methyl]-6-methyl-morpholin-4-yl]-1-methyl-1,8-naphthyridin-2-one] | 57
16 | C[C@@H]1CN(c2ccc(C#N)c3ncccc23)C[C@H](CN2CCN(c3cccc(N4CCNCC(O)C4)n3)CC2)O1 (stereo partly drawn) [Example 41, 5-[(2S,6R)-2-[[4-[6-(6-hydroxy-1,4-diazepan-1-yl)-2-pyridyl]piperazin-1-yl]methyl]-6-methyl-morpholin-4-yl]quinoline-8-carbonitrile] | 150
17 | C[C@@H]1CN(c2ccc(C#N)c3ncccc23)C[C@H](CN2CCN(c3nc(N4CCNCC4)ncc3C#N)CC2)O1 [Example 50, 5-[(2S,6R)-2-[[4-(5-cyano-2-piperazin-1-yl-pyrimidin-4-yl)piperazin-1-yl]methyl]-6-methyl-morpholin-4-yl]quinoline-8-carbonitrile] | 126
18 | Cc1cc(N2CCN(C[C@H]3CN(c4ccc(C#N)c5ncccc45)C[C@@H](C)O3)CC2)nc(N2CCOCC(N)C2)n1 (stereo partly drawn) [Example 56, 5-[(2S,6R)-2-[[4-[2-(6-amino-1,4-oxazepan-4-yl)-6-methyl-pyrimidin-4-yl]piperazin-1-yl]methyl]-6-methyl-morpholin-4-yl]quinoline-8-carbonitrile] | 34
19 | Cc1cc(N2CCN(C[C@H]3CN(c4ccc(C#N)c5ncccc45)C[C@@H](C)O3)CC2)nc(N2CCNCC2)n1 [Example 47, 5-[(2R,6S)-2-methyl-6-[[4-(6-methyl-2-piperazin-1-yl-pyrimidin-4-yl)piperazin-1-yl]methyl]morpholin-4-yl]quinoline-8-carbonitrile] | 67
20 | C[C@@H]1CN(c2ccc(C#N)c3ncccc23)C[C@H](CN2CCN(c3ccnc(N4CCN(C(=O)C5CCN5)CC4)n3)CC2)O1 (stereo partly drawn) [Example 34, 5-[(2S,6R)-2-[[4-[2-[4-(azetidine-2-carbonyl)piperazin-1-yl]pyrimidin-4-yl]piperazin-1-yl]methyl]-6-methyl-morpholin-4-yl]quinoline-8-carbonitrile] | 71
